# How the values were obtained:
# GPR83 = settings: cited from earlier work
# From the text: G protein-coupled receptor 83 (GPR83), also termed glucocorticoid-induced receptor (GIR), GPR72, KIAA1540, or JP05, is a class A G protein-coupled receptor with predominant expression in the […] and proposed function in the regulation of food intake and in anxiety-like behavior [1, 2, 3]. […] A potential role of GPR83 in regulatory T cell development and function has not been confirmed. […] The present study was initiated to evaluate PEN as a ligand of GPR83. […] While one end of the peptide may be crucial for binding the receptor, an absolute requirement of both peptide termini to be free of another ...
# [1] = tested on: GPR83 and deletion variant GPR83del (HEK293 clones; wild-type HEK293 as comparison); assay: Intracellular calcium mobilization, HEK293 cells; assay type: cell-based, human
# Procedure: (§1) As activation of many GPCRs is coupled to calcium mobilization from intracellular stores, GPR83 was probed for ligand-dependent calcium release. Wild-type HEK293 cells and HEK293 clones overexpressing either full-length GPR83 or the N-terminal deletion variant GPR83del were exposed to buffer or one of two independent synthesis batches (PEN #1 and PEN #2) of the neuropeptide PEN, while calcium indicator fluorescence was recorded. […] Calcium release was also tested in a second cell line, osteosarcoma U2OS cells, using various stably expressing clones. […] Therefore, HEK293 cells transfected with Gα16 were employed to investigate a potential GPR83-dependent calcium mobilization with PEN. […] A number of GPCRs show ligand-independent basal calcium activity. However, in an experiment comparing basal calcium levels in wild-type HEK293 cells and in HEK293 clones overexpressing four different variants of GPR83, they were not found to be different (Figure 2D).
# (§2) Figure 2 Investigation of ligand-dependent and ligand-independent intracellular calcium mobilization. (A) Wild-type HEK293 cells and HEK293 cell clones overexpressing either GPR83 or the deletion variant GPR83del were incubated with either buffer or the specified ligand (10 µM PEN or co mix = 100 µM carbachol, 100 µM ATP, 40 µM dimaprit, or 50 µM ionomycin). (B) Calcium indicator fluorescence intensity traces over 60 s of various U2OS cell clones overexpressing untagged or HA-tagged GPR83 or the deletion variant GPR83del before and after the addition of buffer or ligand (co mix as in (A) or 50 µM ionomycin or 10 µM PEN). […]
# (§3) Cells were seeded at 50,000 cells/well in a poly-D-lysine coated 96-well black well/clear bottom plate (BD Falcon, Franklin Lakes, NJ, USA) and cultured overnight. […] Fluorescence was recorded with the fluorescence imaging plate reader CellLux (Perkin Elmer, Waltham, MA, USA) simultaneously in all wells at an excitation wavelength of 488 nm and emission wavelength of 510 nm in 1.5 s intervals over a period of 4 min. Fluorescence data were generated in duplicate, and experiments were repeated at least two times.
# [2] = tested on: GPR83 and GPR83del with Gα16 (HEK293); assay: Intracellular calcium mobilization, Gα16-transfected HEK293 cells; assay type: cell-based, human; settings: 10 µM PEN, 100 µM carbachol, 100 µM ATP, Fluo4-AM fluorescence, duplicate, repeated at least two times
# Procedure: as §1, §2, §3
# [3] = tested on: GPR83 (CHO and Neuro2A cells); settings: CHO and Neuro2A cells overexpressing human GPR83; ref [10]; cited from earlier work
# From the text: (§4) While the earlier study employed CHO cells from Cricetulus griseus and Neuro2A cells from Mus musculus overexpressing human GPR83 [10], this study used human HEK293 and U2OS c ...
# HEK293 cells = settings: some batches of HEK293 cells; ref [10]; cited from earlier work
# From the text: as §4
# [4] = tested on: GPR83 with chimeric Gα16/i3 protein (CHO cells); settings: CHO cells transfected with GPR83 and chimeric Gα16/i3 protein; ref [10]; cited from earlier work
# From the text: In the present study, evidence for a molecular interaction of the neuropeptide PEN with the cell surface receptor GPR83 could not be found.
# [5] = tested on: GPR83 and deletion variant GPR83del (untagged or HA-tagged, U2OS clones); assay: Intracellular calcium mobilization, U2OS cells; assay type: cell-based, human; settings: 10 µM PEN, controls co mix or 50 µM ionomycin, traces over 60 s, ligand added 10 s after start of recording, Fluo4-AM, duplicate, repeated at least two times
# Procedure: as §1, with “However, in an experiment comparing basal calcium levels in wild-type HEK293 cells and in HEK293 clones overexpressing four different variants of GPR83, they were not found to be different (Figure 2D).” left out
# Figure 2 Investigation of ligand-dependent and ligand-independent intracellular calcium mobilization. […] (B) Calcium indicator fluorescence intensity traces over 60 s of various U2OS cell clones overexpressing untagged or HA-tagged GPR83 or the deletion variant GPR83del before and after the addition of buffer or ligand (co mix as in (A) or 50 µM ionomycin or 10 µM PEN). […]
# Cells were seeded at 50,000 cells/well in a poly-D-lysine coated 96-well black well/clear bottom plate (BD Falcon, Franklin Lakes, NJ, USA) and cultured overnight. […] Fluorescence data were generated in duplicate, and experiments were repeated at least two times.
sequence,measurement,setting,value
"AADHDVGSELPPEGVLGALLRV [PEN, batch #1 synthesized, batch #2 purchased from Phoenix Pharmaceuticals]",ligand for GPR83,"GPR83; 2016 proposal, ref [10]",serves as a distinct ligand for GPR83
same,GPR83 ligand and agonist,"GPR83; comparative evaluation, multiple assay systems, ref [16]",not PEN
same,activation of GPR83,"GPR83; independent reports from two other labs, ref [12],[13]",supported activation of GPR83 by PEN
same,calcium signal,"[1]; 10 µM PEN, co mix = 100 µM carbachol, 100 µM ATP, 40 µM dimaprit, 50 µM ionomycin, HEK293 wild-type, GPR83 or GPR83del clones, Fluo4-AM fluorescence, compared with buffer, duplicate, repeated at least two times",PEN did not
same,Ca2+ signal above background,"[1]; two synthesis batches of PEN, confirmed in HEK293 and U2OS cells, full-length or truncated GPR83 (Figure 2A–C)",none of two synthesis batches of PEN from different sources was found to yield a signal above background
same,calcium signal,[2],PEN did not
same,GPR83-mediated cAMP signaling,[3],Modification of GPR83-mediated cAMP signaling by PEN has been previously reported
same,response of HEK293 cells,HEK293 cells,had not responded to PEN
same,intracellular Ca2+ mobilization,[4],PEN-induced intracellular Ca^2+ mobilization
same,enhancement of calcium indicator fluorescence,[5],PEN did not

# — article PMC10606834, “Is the Neuropeptide PEN a Ligand of GPR83?” (International Journal of Molecular Sciences, 2023)
